From patent US9593363B2, “Methods and models for assessing anti-aging benefits of agents” (The Procter & Gamble Company, priority 2012, dated 2017)

Legend:
Type in all cases: cell-based
[1] = test system: TGFβ-2 and TGFβ-3; test: ex vivo human skin tissue culture, PCR fold change of TGFβ-2 and TGFβ-3; details: media dosing, 33° C., 55% relative humidity, 4 and 7 days, N=6 (FIG. 4)
Description: FIG. 4 illustrates a heat map of the fold change of some of the genes from FIG. 3 following media dosing of ex vivo tissue samples (N=6 per material) incubated at 33° C. and 55% relative humidity with four materials over a 7 day time course. Cross-hatching is provided in some of the cells of the table in FIG. 4 to indicate statistically significant up-regulation (p value≦0.05 and p value≦0.1) and statistically significant down regulation p value≦0.05 and p value≦0.1). In addition to TGFβ-1, three exogenous materials believed to provide one or more in vivo, anti-aging skin benefits were tested. The three exogenous materials tested were a vitamin B3 compound (i.e., niacinamide), a peptide (i.e., PAL-KT brand peptide (palmitoyl-lysine-threonine)), and an olive oil extract (i.e., OLIVEM 460 brand olive oil extract). Niacinamide is believed to provide a number of cosmetic skin care benefits (see, e.g., Bissett el al. “Niacinamide: A B Vitamin that Improves Aging Facial Skin Appearance” and Draelos “Clinical Situations Conducive to Proactive Skin Health and Anti-Aging Improvement”). […]

[2] = test system: epidermal gene panel; test: ex vivo human skin tissue culture, PCR fold change of epidermal gene panel vs untreated control; details: 5 day time course, 33° C.; for relative fold change of epidermal gene panel (rank order): 70% relative humidity (FIG. 5A); for regulation of AQP3 / regulation of KRT10 and FLG: 70% relative humidity, tRA media applied, retinol and retinol propionate topically applied, N=6 (FIG. 5A)
Description: Referring to FIG. 5A, a bar graph illustrates the fold change (compared to an untreated control) for the epidermal gene panel of FIG. 3 following media dosing with trans-retinoic acid (tRA), retinol, or retinol propionate (RP) over a 5 day time course. […] The doses were applied over a 5 day time course during which tRA was media applied while retinol and retinol propionate were topically applied to the ex-vivo tissue samples (N=6 per material) incubated at 33° C. and 70% relative humidity. At the end of 5 days, two 4 mm punch biopsies were removed from each of the tissue samples for RNA isolation followed by PCR analysis.
The fold-increase/decrease in expression, versus an untreated control, was determined for the epidermal gene panel set forth in FIG. 3 for ex vivo tissue from a single donor over a 7 day time course incubated at 37° C. at a relative humidity of 55%. The test agents were applied topically.

[3] = test system: dermal gene panel; test: ex vivo human skin tissue culture, PCR fold change of dermal gene panel vs untreated control
Description: The culturing temperature can also affect the pattern and magnitude of the gene regulation in ex vivo tissue samples. Referring to FIGS. 9A and 9B, heat maps illustrate the fold changes for nine dermal genes for five different donor tissue samples incubated at 33° C. for 7 days and 50% relative humidity and five different donor tissue samples incubated at 37° C. for 7 days at 50% relative humidity. The tissue samples were treated with a media supplied dose of 20 ng/ml of TGFβ-1. […]
Referring to FIG. 18, an olive oil extract, an artichoke leaf extract, and a blend of these extracts were evaluated according to methods described herein. The cells in the table of FIG. 18 are cross-hatched in the same way as the cells in the table of FIG. 4 (i.e., see the legend provided in FIG. 4). The fold-increase/decrease in expression, versus an untreated control, was determined for the dermal gene panel set forth in FIG. 3 for ex vivo tissue from a single donor over a 7 day time course. The skin samples were incubated at a temperature of 37° C. and a relative humidity of 55%. The test agents were applied topically to the skin samples. […] This is another example of identifying actives that may synergistically provide anti-aging benefit.
(§1) Skin preparation involved preparation of media in advance of the arrival of skin (3× media including 500 ml DMEM plus 15 ml of antibiotic and antimycotics; the 3× referred to 3-fold levels of antibiotics/antimycotics used for the initial hour of incubation; 1× Media: 500 ml DMEM plus 5 ml of antibiotic and antimycotics). The skin arrived with the dermis (fat) side down on sterile DMEM soaked gauze in a sterile culture dish. The culture dish was taped shut and in a biohazard zip-lock baggie on an ice pack in a secondary container.
(§2) On arrival, the skin was removed from the bag and soaked in 3×DMEM media and stored at 4° C. for 1 hour. After 1 hour, the skin was removed from the 3×DMEM and rinsed with sterile 1×PBS. The skin was placed in a clean culture dish containing gauze soaked with 1×DMEM. The sample was put in culture the same day as arrival; though the sample may be stored overnight at 4° C. if desired.
(§3) In preparation for culture, the following were performed on the skin tissue. On a cutting mat, the skin tissue was positioned such that the epidermis was down and the fat was exposed. The fat was removed with a disposable scalpel by carefully grasping one corner of the skin with sterile serrated forceps and scraping the fat away with the blade held at a 45 degree angle to the skin. After the fat was removed, the surgical edges were cut off with a scalpel using a scraper as a straight edge guide and to hold the skin in place. Using the scraper as a guide, the skin was cut into 1.25 cm wide strips using a ruler (such as the one on optionally provided on the cutting mat) to measure the width. The strip was rinsed in a 100 mm culture dish containing 1×PBS. The strips were cut into 1.25 cm squares and placed in a 100 mm culture dish onto 1×DMEM soaked gauze until they were put into culture 30 minutes later (with time points of 15 minutes, 30 minutes, 45 minutes, or an hour being used in various non-limiting examples).
Culturing involved putting 2.5 ml of media or treatment into each well of a 6-well tissue plate, adding one Millicell® brand culture insert to each well, and putting 100 μl of 1×DMEM on the center of each insert membrane. The skin sample squares were selected randomly and placed into each of the inserts (one skin sample per insert), on top of the media on the membrane. The plates were stored at 33° C. (though an additional non-limiting example would be 37° C. depending on the experiment endpoint). As a control, baseline tissue measurements were collected from excess waste (cryogenics were used for snap freezing). […]

[4] = test system: retinoid metabolism gene panel; test: ex vivo human skin tissue culture, PCR fold change of retinoid gene panel; details: for regulation of CYP26A1, ALDH1A2, RDH10, RARRES1 and LRAT: by Day 7 compared to Day 5, single donor, tRA media, retinol propionate topical (FIG. 6C); for regulation of CRABP2, RARG and CEBPA / regulation of Cyp26B1: day 7, 37° C., tRA media applied, retinol propionate topically applied (FIG. 6C)
Description: FIGS. 6A, 6B, and 6C provide heat maps illustrating the fold change for the gene panel of FIG. 3 over a 7 day time course following media dosing with the tRA and retinol propionate. The cells in FIGS. 6A, 6B, and 6C are cross-hatched in the same way as the cells in FIG. 4 (i.e., see the legend provided in FIG. 4). The tRA was media applied and the retinol propionate was topically applied to the ex-vivo tissue samples (N=6 per material), which were incubated at 37° C. and 50% relative humidity. At the end of 48 hours, 5 days and 7 days, two 4 mm punch biopsies were removed from each of the tissue samples for RNA isolation followed by PCR analysis. […] These genes are all important in retinoic acid-mediated regulation of human skin growth and differentiation.
Referring again to FIGS. 6A, 6B, and 6C, the fold change data from a single donor over a 7 day time course is shown for media application of tRA and topical application of retinol propionate.
as §1, §2, §3
Culturing involved putting 2.5 ml of media or treatment into each well of a 6-well tissue plate, adding one Millicell® brand culture insert to each well, and putting 100 μl of 1×DMEM on the center of each insert membrane. The skin sample squares were selected randomly and placed into each of the inserts (one skin sample per insert), on top of the media on the membrane. The plates were stored at 33° C. (though an additional non-limiting example would be 37° C. depending on the experiment endpoint). As a control, baseline tissue measurements were collected from excess waste (cryogenics were used for snap freezing). Baseline biopsy collection involved from each tissue piece; one 4 mm punch for MTT; one 4 mm punch (snap frozen in OCT) for fresh histology; One 4 mm punch was fixed in 10% formalin for paraffin embedding and two 4 mm punches (snap frozen in liquid nitrogen) for PCR.
Culture and treatment of the model comprised replicates of n=6 (though replicates of additional quantities may be used such as n=5).

[5] = 33° C., 7 days, 50% relative humidity, media 20 ng/ml, five donors (FIG. 9B)

Molecule	relative fold change of epidermal gene panel (rank order) [2]	regulation of AQP3 [2]	regulation of KRT10 and FLG [2]	regulation of CYP26A1, ALDH1A2, RDH10, RARRES1 and LRAT [4]	regulation of CRABP2, RARG and CEBPA ([4]; 50% relative humidity)	regulation of Cyp26B1 ([4]; 50% relative humidity)	other results
palmitoyl-lysine-threonine [peptide]	–	–	–	–	–	–	regulation of TGFβ-2 and TGFβ-3 [1]: up-regulated
CC1=C(/C=C/C(C)=C/C=C/C(C)=C/CO)C(C)(C)CCC1 [retinol]	tRA>retinol>retinol propionate	up-regulated	significantly down-regulated	–	–	–	–
TGFβ-1: endogenous gene stimulative compound, known regulator of dermal matrix genes; used as positive control	–	–	–	–	–	–	regulation of ELN and LOXL2 [3, 5]: did not show statistically significant up-regulation; regulation of FN1, COL1A1 and COL3A1 [3, 5]: significantly up-regulated; statistically significant up-regulation of ELN and LOXL2 across a majority of donors ([3]; 37° C., 7 days, 50% relative humidity, media 20 ng/ml, five donors (FIG. 9A)): did at 37 °C; regulation of FN1, LOXL2, COL3A1, ELN and LOXL1 ([3]; 24 hrs, media application 20 ng/ml, single donor, 37° C., 50% relative humidity (FIG. 8A)): significantly regulated; number of statistically significant genes up-regulated at 37° C. versus 33° C. ([3]; 7 days, 50% relative humidity, media 20 ng/ml, nine dermal genes): increased dramatically; donor tissues with statistically significant up-regulation of at least FN1, COL1A1 and ELN ([3]; media 20 ng/ml, 11 days, 33° C., 70% relative humidity, eight donor tissues (FIG. 15)): 80%; time of most robust response of dermal genes ([3]; media application 20 ng/ml, single donor, 37° C., 50% relative humidity, 1 to 7 days (FIG. 8A)): between Day 5 and Day 7; regulation of FN1, COL1A1 and COL3A1 ([3]; media applied 20 ng/ml, single donor, time course 24 hrs to 7 days (FIG. 2)): increasingly up-regulated; response of dermal genes ([3]; media supplied (FIGS. 2, 4, 7 and 8)): strong, consistent, up-regulation response
CCC(=O)OC/C=C(C)/C=C/C=C(C)/C=C/C1=C(C)CCCC1(C)C [retinol propionate]	tRA>retinol>retinol propionate	up-regulated	significantly down-regulated	down-regulated with statistical significance	strongly up-regulate	strongly up-regulated	–
CC1=C(/C=C/C(C)=C/C=C/C(C)=C/C(=O)O)C(C)(C)CCC1 [tRA, trans-retinoic acid]	tRA>retinol>retinol propionate	up-regulated	significantly down-regulated	down-regulated with statistical significance	strongly up-regulate	strongly up-regulated	response of retinoid metabolism genes, tRA compared with RP ([4]; 37° C., 50% relative humidity, 48 hours to 7 days (FIGS. 6A-6C)): stronger response
